Laboratory results: patent US10399989B2, “Pyrazolopyrimidine derivatives as BTK inhibitors for the treatment of cancer” (Loxo Oncology, Inc., priority 2016, dated 2019)
Like-named read-outs stand apart in the source and are kept apart here.

Columns and labels:
BTK^WT = BTK^WT (Homo sapiens (Human), UniProt Q06187); test: BTK^WT binding affinity (TR-FRET, LanthaScreen)
Method: BTK^WT binding affinity of each compound tested was determined using a time-resolved fluorescence resonance energy transfer (TR-FRET) methodology. 2.5 nM Recombinant BTK^WT kinase, varying concentrations of inhibitor, 2 nM LanthaScreen™ Eu anti-His Antibody and 15 nM Kinase Tracer 236 was incubated in 1× LanthaScreen™ Kinase Buffer A for 5 h. Recombinant BTK kinase and all LanthaScreen™ components were purchased from Invitrogen. Measurements were performed in a reaction volume of 30 μL using half-area 96-well assay plates. The TR-FRET signal was read on a plate reader with an excitation wavelength of 340 nm and detection wavelengths of 615 and 665 nm. Binding affinity was determined for each compound by measuring TR-FRET signal at various concentrations of compound and plotting the relative fluorescence units against the inhibitor concentration to estimate the IC50 from log [Inhibitor] vs response using the Variable Slope model in Graphpad prism from Graphpad software (SanDiego, Calif.).

BTK^C481S = BTK^C481S (Homo sapiens (Human), UniProt Q06187, C481S); test: BTK^C481S binding affinity (TR-FRET, LanthaScreen); settings: 5 h incubation
Chain of BTK^C481S (Q06187 whole entry C481S): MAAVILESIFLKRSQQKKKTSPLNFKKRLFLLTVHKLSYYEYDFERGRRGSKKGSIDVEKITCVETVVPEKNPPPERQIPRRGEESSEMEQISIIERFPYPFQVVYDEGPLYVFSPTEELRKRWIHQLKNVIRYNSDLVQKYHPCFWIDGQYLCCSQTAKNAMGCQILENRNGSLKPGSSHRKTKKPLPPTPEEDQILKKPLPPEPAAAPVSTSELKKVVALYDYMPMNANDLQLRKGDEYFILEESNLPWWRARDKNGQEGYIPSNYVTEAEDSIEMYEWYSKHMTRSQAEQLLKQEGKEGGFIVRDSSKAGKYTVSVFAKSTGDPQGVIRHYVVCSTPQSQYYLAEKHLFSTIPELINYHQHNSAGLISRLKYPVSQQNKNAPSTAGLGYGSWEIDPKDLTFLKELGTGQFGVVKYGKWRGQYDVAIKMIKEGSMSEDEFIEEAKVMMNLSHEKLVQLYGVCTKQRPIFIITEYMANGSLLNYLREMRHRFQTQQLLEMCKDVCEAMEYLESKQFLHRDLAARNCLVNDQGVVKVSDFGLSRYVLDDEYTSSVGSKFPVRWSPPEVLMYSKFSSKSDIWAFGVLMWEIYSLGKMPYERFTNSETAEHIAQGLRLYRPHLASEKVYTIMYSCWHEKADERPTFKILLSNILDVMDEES
Method: BTK^C481S binding affinity of each compound tested was determined using a time-resolved fluorescence resonance energy transfer (TR-FRET) methodology. 5 nM Recombinant […] kinase, varying concentrations of inhibitor, 2 nM LanthaScreen™ Eu anti-His Antibody and 30 nM Kinase Tracer 236 was incubated in 1× LanthaScreen™ Kinase Buffer A for 5 h. Recombinant BTK^C481S kinase was purchased from SignalChem and all LanthaScreen™ components were purchased from Invitrogen. Measurements were performed in a reaction volume of 30 μL using half-area 96-well assay plates. The TR-FRET signal was read on a plate reader with an excitation wavelength of 340 nm and detection wavelengths of 615 and 665 nm. Binding affinity was determined for each compound by measuring TR-FRET signal at various concentrations of compound and plotting the relative fluorescence units against the inhibitor concentration to estimate the IC50 from log [Inhibitor] vs response using the Variable Slope model in Graphpad prism from Graphpad software (SanDiego, Calif.).

EGFR = EGFR (Homo sapiens (Human), UniProt P00533); test: EGFR binding affinity (TR-FRET, LanthaScreen); settings: 5 h incubation
Chain of EGFR (P00533 25-1210): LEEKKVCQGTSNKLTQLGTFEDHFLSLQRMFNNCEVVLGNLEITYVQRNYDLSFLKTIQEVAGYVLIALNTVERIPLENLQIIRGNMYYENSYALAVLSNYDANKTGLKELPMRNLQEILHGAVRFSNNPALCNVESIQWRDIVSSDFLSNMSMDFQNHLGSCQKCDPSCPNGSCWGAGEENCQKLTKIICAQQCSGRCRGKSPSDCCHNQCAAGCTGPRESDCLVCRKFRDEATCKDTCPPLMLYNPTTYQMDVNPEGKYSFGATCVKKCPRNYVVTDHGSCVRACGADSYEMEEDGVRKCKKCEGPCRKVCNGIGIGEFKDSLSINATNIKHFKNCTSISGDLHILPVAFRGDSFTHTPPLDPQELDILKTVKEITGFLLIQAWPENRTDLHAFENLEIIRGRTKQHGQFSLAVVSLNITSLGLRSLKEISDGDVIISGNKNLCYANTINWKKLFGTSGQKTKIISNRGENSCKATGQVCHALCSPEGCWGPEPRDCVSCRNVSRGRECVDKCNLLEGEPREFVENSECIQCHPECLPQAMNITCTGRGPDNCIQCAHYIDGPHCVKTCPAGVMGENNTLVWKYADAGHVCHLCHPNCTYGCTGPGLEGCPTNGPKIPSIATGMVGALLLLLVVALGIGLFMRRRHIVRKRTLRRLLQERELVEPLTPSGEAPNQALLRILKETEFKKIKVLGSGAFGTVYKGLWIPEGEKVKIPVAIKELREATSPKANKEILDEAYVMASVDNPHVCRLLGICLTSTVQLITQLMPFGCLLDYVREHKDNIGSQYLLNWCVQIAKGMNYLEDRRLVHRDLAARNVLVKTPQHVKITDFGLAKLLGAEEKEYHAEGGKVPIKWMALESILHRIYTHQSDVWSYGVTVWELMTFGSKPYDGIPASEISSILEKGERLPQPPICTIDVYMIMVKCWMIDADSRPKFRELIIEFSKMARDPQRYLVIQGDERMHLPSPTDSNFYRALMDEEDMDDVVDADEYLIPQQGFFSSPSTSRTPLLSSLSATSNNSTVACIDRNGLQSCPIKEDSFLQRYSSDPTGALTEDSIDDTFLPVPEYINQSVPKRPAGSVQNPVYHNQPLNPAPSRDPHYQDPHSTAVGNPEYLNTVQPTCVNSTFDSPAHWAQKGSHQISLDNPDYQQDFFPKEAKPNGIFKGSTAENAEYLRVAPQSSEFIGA
Method: EGFR binding affinity was determined using a time-resolved fluorescence resonance energy transfer (TR-FRET) methodology. 2.5 nM Recombinant EGFR, varying concentrations of inhibitor, 2 nM LanthaScreen™ Eu anti-GST Antibody and 3 nM Kinase Tracer 199 was incubated in 1× LanthaScreen™ Kinase Buffer A for 5 h. Recombinant EGFR and all LanthaScreen™ components were purchased from Invitrogen. Measurements were performed in a reaction volume of 30 μL using half-area 96-well assay plates. The TR-FRET signal was read on a plate reader with an excitation wavelength of 340 nm and detection wavelengths of 615 and 665 nm. Binding affinity was determined for each compound by measuring TR-FRET signal at various concentrations of compound and plotting the relative fluorescence units against the inhibitor concentration to estimate the IC50 from log [Inhibitor] vs response using the Variable Slope model in Graphpad prism from Graphpad software (SanDiego, Calif.).

[1] = tested on: OCI-Ly10 human DLBCL cells; test: OCI-Ly10 anti-proliferative activity (Resazurin, 72 h); type: cell-based; settings: read-out: Proliferation OCI-Ly10-IC50
Method: Compounds were assayed for effects on the growth of OCI-Ly10 human DLBCL cells that are dependent on NFκB signalling. OCI-Ly10 cells were grown in suspension in T225 flasks, centrifuged and re-suspended in 2.5% FBS containing media. Cells were then plated at 7.5×10^3 cells per well in 96-well plates in varying concentrations of compound and incubated for 72 h at 37° C. An additional plate of cells to be used as the Day 0 read was seeded without compound addition, Resazurin was added to each well, incubated for 5 h and the fluorescence measured at 590 nm. After 72 h of compound treatment, Resazurin was added to each well of the compound treated plates, incubated for 5 h and the fluorescence measured at 590 nm. The IC50 was then calculated by subtracting the average Day 0 value from each well value from the treated plates, each treatment was then calculated as a percentage of the DMSO control and the percentages plotted against the inhibitor concentration to estimate the IC50 from log [Inhibitor] vs response using the Variable Slope model in Graphpad prism from Graphpad software (SanDiego, Calif.).

[2] = TR-FRET binding, 5 h incubation, read-out: BTK^WT IC50
[3] = Table 6, numeric values, read-out: BTK Binding IC50

Chain of BTK^WT (Q06187 whole entry): as the sequence (Q06187 whole entry C481S) above, with S481C counted along it

COc1ccc(Cl)cc1C(=O)NCc1ccc(-c2nn(C3CCCC3)c3ncnc(N)c23)cc1 [Example 11, N-[[4-(4-amino-1-cyclopentyl-pyrazolo[3,4-d]pyrimidin-3-yl)phenyl]methyl]-5-chloro-2-methoxy-benzamide]
IC50 (BTK^WT; [2]): ≤ 10 nM | IC50 (BTK^C481S): ≤ 10 nM | IC50 (EGFR): 1000 to 10000 nM | IC50 ([1]; Homo sapiens, OCI-Ly10, 72 h): 10 to 100 nM

CCOC(=O)C1CCCC(n2nc(-c3ccc(CNC(=O)c4ccccc4OC)cc3)c3c(N)ncnc32)C1 (stereo not drawn) [Example 41, ethyl 3-[4-amino-3-[4-[[(2-methoxybenzoyl)amino]methyl]phenyl]pyrazolo[3,4-d]pyrimidin-1-yl]cyclohexanecarboxylate]
IC50 (BTK^WT; [2]): ≤ 10 nM | IC50 (BTK^WT; [3]): 1.2 nM | IC50 (BTK^C481S): ≤ 10 nM | IC50 (EGFR): 100 to 1000 nM | IC50 ([1]; Homo sapiens, OCI-Ly10, 72 h): 100 to 1000 nM

COc1ccccc1C(=O)NCc1ccc(-c2nn(C3CCC(O)CC3)c3ncnc(N)c23)cc1 (single isomer, unassigned) [Example 23-isomer2, N-[[4-[4-amino-1-(4-hydroxycyclohexyl)pyrazolo[3,4-d]pyrimidin-3-yl]phenyl]methyl]-2-methoxy-benzamide]
IC50 (BTK^WT; [2]): ≤ 10 nM | IC50 (BTK^WT; [3]): 0.4 nM | IC50 (BTK^C481S): ≤ 10 nM | IC50 (EGFR): 100 to 1000 nM | IC50 [1]: 10 to 100 nM

COc1ccccc1C(=O)NCc1ccc(-c2nn(CC(C)C)c3ncnc(N)c23)cc1 [Example 76, N-[[4-(4-amino-1-isobutyl-pyrazolo[3,4-d]pyrimidin-3-yl)phenyl]methyl]-2-methoxy-benzamide]
IC50 (BTK^WT; [2]): ≤ 10 nM | IC50 (BTK^C481S): ≤ 10 nM | IC50 (EGFR): 100 to 1000 nM | IC50 ([1]; Homo sapiens, OCI-Ly10, 72 h): 100 to 1000 nM

COc1ccccc1C(=O)NCc1ccc(-c2nn(C3CCCC3)c3ncnc(N)c23)cc1 [Example 1, N-[[4-(4-amino-1-cyclopentyl-pyrazolo[3,4-d]pyrimidin-3-yl)phenyl]methyl]-2-methoxy-benzamide]
IC50 (BTK^WT; [2]): ≤ 10 nM | IC50 (BTK^C481S): ≤ 10 nM | IC50 ([1]; Homo sapiens, OCI-Ly10, 72 h): 10 to 100 nM

COc1ccccc1C(=O)NCc1ccc(-c2nn([C@H]3C=C[C@H](F)C3)c3ncnc(N)c23)cc1 [Example 54, N-[(4-{4-amino-1-[(1R,4R)-4-fluorocyclopent-2-en-1-yl]-1H-pyrazolo[3,4-d]pyrimidin-3-yl}phenyl)methyl]-2-methoxybenzamide]
IC50 (BTK^WT; [2]): ≤ 10 nM | IC50 (BTK^WT; [3]): 0.7 nM | IC50 (BTK^C481S): ≤ 10 nM | IC50 (EGFR): 1000 to 10000 nM | IC50 ([1]; Homo sapiens, OCI-Ly10, 72 h): 100 to 1000 nM

COc1ccccc1C(=O)NCc1ccc(-c2nn([C@@H]3CC[C@H](O)C3)c3ncnc(N)c23)cc1 (relative stereo) [Example 24, N-[[4-[4-amino-1-[(1R*,3S*)-3-hydroxycyclopentyl]pyrazolo[3,4-d]pyrimidin-3-yl]phenyl]methyl]-2-methoxy-benzamide]
IC50 (BTK^WT; [2]): ≤ 10 nM | IC50 (BTK^WT; [3]): 2.2 nM | IC50 (BTK^C481S): ≤ 10 nM | IC50 (EGFR): 100 to 1000 nM | IC50 ([1]; Homo sapiens, OCI-Ly10, 72 h): 10 to 100 nM

COc1ccc(F)cc1C(=O)NCc1ccc(-c2nn(C3CCC(C)(O)CC3)c3ncnc(N)c23)cc1 (single isomer, unassigned) [Example 94, N-[[4-[4-Amino-1-(4-hydroxy-4-methyl-cyclohexyl)pyrazolo[3,4-d]pyrimidin-3-yl]phenyl]methyl]-5-fluoro-2-methoxy-benzamide]
IC50 (BTK^WT; [2]): ≤ 10 nM | IC50 (BTK^C481S): ≤ 10 nM | IC50 (EGFR): 100 to 1000 nM | IC50 ([1]; Homo sapiens, OCI-Ly10, 72 h): 10 to 100 nM

CC(C)Oc1ccccc1C(=O)NCc1ccc(-c2nn(C3CCCC3)c3ncnc(N)c23)cc1 [Example 8, N-[[4-(4-amino-1-cyclopentyl-pyrazolo[3,4-d]pyrimidin-3-yl)phenyl]methyl]-2-isopropoxy-benzamide]
IC50 (BTK^WT; [2]): 10 to 100 nM | IC50 (BTK^C481S): ≤ 10 nM | IC50 (EGFR): 1000 to 10000 nM | IC50 ([1]; Homo sapiens, OCI-Ly10, 72 h): 1000 to 10000 nM

COc1ncccc1C(=O)NCc1ccc(-c2nn(C3CCCC3)c3ncnc(N)c23)cc1 [Example 18, N-[[4-(4-amino-1-cyclopentyl-pyrazolo[3,4-d]pyrimidin-3-yl)phenyl]methyl]-2-methoxy-pyridine-3-carboxamide]
IC50 (BTK^WT; [2]): 10 to 100 nM | IC50 (BTK^C481S): 10 to 100 nM | IC50 ([1]; Homo sapiens, OCI-Ly10, 72 h): 100 to 1000 nM

COc1cc(C)ccc1C(=O)NCc1ccc(-c2nn(C3CCCC3)c3ncnc(N)c23)cc1 [Example 10, N-[[4-(4-amino-1-cyclopentyl-pyrazolo[3,4-d]pyrimidin-3-yl)phenyl]methyl]-2-methoxy-4-methyl-benzamide]
IC50 (EGFR): > 10000 nM | IC50 ([1]; Homo sapiens, OCI-Ly10, 72 h): 100 to 1000 nM

COc1cccc(F)c1C(=O)NCc1ccc(-c2nn(C3CCCC3)c3ncnc(N)c23)cc1 [Example 16, N-[[4-(4-amino-1-cyclopentyl-pyrazolo[3,4-d]pyrimidin-3-yl)phenyl]methyl]-2-fluoro-6-methoxy-benzamide]
IC50 (EGFR): 1000 to 10000 nM | IC50 ([1]; Homo sapiens, OCI-Ly10, 72 h): 1000 to 10000 nM

COc1ccc(C(F)(F)F)cc1C(=O)NCc1ccc(-c2nn(C3CCCC3)c3ncnc(N)c23)cc1 [Example 13, N-[[4-(4-amino-1-cyclopentyl-pyrazolo[3,4-d]pyrimidin-3-yl)phenyl]methyl]-2-methoxy-5-(trifluoromethyl)benzamide]
IC50 (BTK^WT; [2]): 100 to 1000 nM | IC50 (EGFR): > 10000 nM | IC50 ([1]; Homo sapiens, OCI-Ly10, 72 h): 100 to 1000 nM

CC(C)(C)n1nc(-c2ccc(CNC(=O)c3cc4ccccc4o3)cc2)c2c(N)ncnc21 [Example 81, N-[[4-(4-amino-1-tert-butyl-pyrazolo[3,4-d]pyrimidin-3-yl)phenyl]methyl]benzofuran-2-carboxamide]
IC50 (BTK^WT; [2]): 1000 to 10000 nM | IC50 ([1]; Homo sapiens, OCI-Ly10, 72 h): 1000 to 10000 nM

COc1cc(F)ccc1C(=O)NCc1ccc(-c2nn(C3CCCC3)c3ncnc(N)c23)cc1 [Example 15, N-[[4-(4-amino-1-cyclopentyl-pyrazolo[3,4-d]pyrimidin-3-yl)phenyl]methyl]-4-fluoro-2-methoxy-benzamide]
IC50 (EGFR): 1000 to 10000 nM | IC50 ([1]; Homo sapiens, OCI-Ly10, 72 h): 10 to 100 nM

COc1ccccc1C(=O)NC(C)c1ccc(-c2nn(C3CCCC3)c3ncnc(N)c23)cc1 (stereo not drawn) [Example 64, N-[1-[4-(4-amino-1-cyclopentyl-pyrazolo[3,4-d]pyrimidin-3-yl)phenyl]ethyl]-2-methoxy-benzamide]
IC50 (EGFR): 1000 to 10000 nM | IC50 ([1]; Homo sapiens, OCI-Ly10, 72 h): 1000 to 10000 nM

CC(C)c1ccccc1C(=O)NCc1ccc(-c2nn(C3CCCC3)c3ncnc(N)c23)cc1 [Example 80, N-[[4-(4-amino-1-cyclopentyl-pyrazolo[3,4-d]pyrimidin-3-yl)phenyl]methyl]-2-isopropyl-benzamide]
IC50 (EGFR): 1000 to 10000 nM | IC50 ([1]; Homo sapiens, OCI-Ly10, 72 h): 1000 to 10000 nM

COc1cc(-c2nn(C3CCCC3)c3ncnc(N)c23)ccc1CNC(=O)c1ccccc1OC [Example 75, N-[[4-(4-Amino-1-cyclopentyl-pyrazolo[3,4-d]pyrimidin-3-yl)-2-methoxy-phenyl]methyl]-2-methoxy-benzamide]
IC50 (BTK^WT; [2]): ≤ 10 nM | IC50 (BTK^C481S): ≤ 10 nM | IC50 ([1]; Homo sapiens, OCI-Ly10, 72 h): 10 to 100 nM

COc1c(F)cccc1C(=O)NCc1ccc(-c2nn(C3CCCC3)c3ncnc(N)c23)cc1 [Example 14, N-[[4-(4-amino-1-cyclopentyl-pyrazolo[3,4-d]pyrimidin-3-yl)phenyl]methyl]-3-fluoro-2-methoxy-benzamide]
IC50 (EGFR): 1000 to 10000 nM | IC50 ([1]; Homo sapiens, OCI-Ly10, 72 h): 100 to 1000 nM

COc1cc(Cl)ccc1C(=O)NCc1ccc(-c2nn(C3CCCC3)c3ncnc(N)c23)cc1 [Example 9, N-[[4-(4-amino-1-cyclopentyl-pyrazolo[3,4-d]pyrimidin-3-yl)phenyl]methyl]-4-chloro-2-methoxy-benzamide]
IC50 (EGFR): > 10000 nM | IC50 ([1]; Homo sapiens, OCI-Ly10, 72 h): 100 to 1000 nM

Nc1ncnc2c1c(-c1ccc(CNC(=O)c3ccccc3F)cc1)nn2C1CCCC1 [Example 2, N-[[4-(4-amino-1-cyclopentyl-pyrazolo[3,4-d]pyrimidin-3-yl)phenyl]methyl]-2-fluoro-benzamide]
IC50 (EGFR): 10 to 100 nM | IC50 ([1]; Homo sapiens, OCI-Ly10, 72 h): 1000 to 10000 nM
